Measured values taken from US9718823B2, “2, 6-Di-nitrogen-containing substituted purine derivative, and preparation method, pharmaceutical composition and use thereof” (Zhejiang Medicine Co., Ltd. Xinchang Pharmaceutical Factory, priority 2013, dated 2017).
Where two headings read alike, the source gives them in different places.

Experiments:
Type in all cases: biochemical
PDGFR β enzyme = target: T1, PDGFR β enzyme (Homo sapiens, UniProt P09619); test: Inhibitory activity to PDGFR β enzyme, HTRF kinEASE TK kit; conditions: read-out: Inhibition rate % (PDGFR β)
T1 construct: purchased Invitrogen P3082
Protocol: HTRF kinEASE TK (Cat.62TK0PEC, Cisbio)
PDGFR β enzyme (Cat.P3082, Invitrogen)
1 mL 1×Kinase Buffer includes 200 μL 5×Enzyme buffer, 5 μL 1M MgCl2, 1 μL 1M DTT, 1 μL 1M MnCl2, 20 μL 2500 nM SEB, 773 μL ddH2O.
TK-Substrate and ATP are diluted to 2.5 times of reaction concentration with 1×PDGFR β Kinase Buffer.
5×PDGFR β enzyme working solution is prepared with 1×PDGFR β kinase buffer.
4×Sa-XL665 working solution is prepared with Detection Buffer.
TK-Ab-Cryptate is diluted 100 times with Detection Buffer to use as working solution.

PI3Kδ = target: T2, PI3Kδ (Homo sapiens, UniProt O00329); test: Inhibitory activity to PI3K δ, PI 3-Kinase (human) HTRF Assay kit; conditions: for inhibition at 1 µM: 1 μM (Table 7); for inhibition at 0.4 µM: 0.4 μM (Table 8); for inhibition at 2 µM: 2 μM (Table 8)
T2 construct: purchased Millipore 14-604
Protocol: Study on the inhibitory activity of the compounds of present invention to PI 3κα, PI3κδ and PI3κγ.
(§1) PI 3-Kinase (human) HTRF™ Assay kit (Cat.33-017, Millipore)
For example, 10 μL DTT is added into 500 μL 4× Reaction Buffer, and water is added to 1.5 mL.
The Test compounds are dissolved with DMSO to 1 mM as storage liquid. 2 μL of each of storage liquid is added into 48 μL ddH2O, to obtain the 40 μM compounds solution containing 4% DMSO. After mixing, 3 μL of each of the solution is added into 27 μL 4% DMSO (in ddH2O) to obtain the 4 μM compounds solution. […]
The screening concentration of PI 3k δ kinase: 2 ng/well,
(§2) Kinase is diluted with 2×PIP2 operating fluid, the concentration of kinase operating fluid is 2 times of screening concentration.
The concentration of ATP is 100 μM in 20 μL kinase reaction system.
(§3) Stop A and Stop B are mixed according to the proportion of 3:1, and are placed for 2 hours at room temperature to obtain the stop solution available.
(§4) DM C, DM A and DM B are mixed according to the proportion of 18:1:1, and are placed for 2 hours at room temperature to obtain the detection solution available.

PI3 K γ = target: T3, PI3 K γ (Homo sapiens, UniProt P48736); test: Inhibitory activity to PI3K γ, PI 3-Kinase (human) HTRF Assay kit; conditions: read-out: Inhibition rate % to PI3 K γ
T3 construct: purchased Biology, Medicilon
Source text: Study on the inhibitory activity of the compounds of present invention to PI 3κα, PI3κδ and PI3κγ. Two or three concentrations of the compounds are selected to preliminary screening to calculate respectively the activity inhibition rate of the compounds of corresponding concentrations to enzyme, then the compounds with better activity are selected by preliminary screening for IC50 test.
as §1
PI 3k γ (Biology, Medicilon)
4× Reaction Buffer (Cat.33-002, Millipore) is diluted with ddH2O to 1.33×, and 1M DTT is added to make the final concentration as 6.67 mM. For example, 10 μL DTT is added into 500 μL 4× Reaction Buffer, and water is added to 1.5 mL.
The Test compounds are dissolved with DMSO to 1 mM as storage liquid. 2 μL of each of storage liquid is added into 48 μL ddH2O, to obtain the 40 μM compounds solution containing 4% DMSO. After mixing, 3 μL of each of the solution is added into 27 μL 4% DMSO (in ddH2O) to obtain the 4 μM compounds solution. 5 μL of each dilute solution is added into 384-well plates, then the final concentration of the compounds in the 20 μL final kinase reaction system is 10 μM and 1 μM respectively contained 1% DMSO. The dilution methods of compounds are similar to the preliminary screening in IC50 test.
2×PIP2 working fluid is prepared with 1.33× reaction buffer to the final concentration of 20 μM.
The screening concentration of PI 3k γ kinase: 80 ng/well,
as §2
10 mM ATP is diluted with 1.33× reaction buffer to 400 μM. The concentration of ATP is 100 μM in 20 μL kinase reaction system.
as §3, §4

[1] = read-out: Inhibition rate % to PI3Kδ
[2] = 10 μM (Table 7), read-out: Inhibition rate % to PI3Kδ
[3] = read-out: Inhibition rate % to PI3K delta
[4] = 10 μM (Table 8), read-out: Inhibition rate % to PI3K delta

T2 sequence (O00329 whole entry): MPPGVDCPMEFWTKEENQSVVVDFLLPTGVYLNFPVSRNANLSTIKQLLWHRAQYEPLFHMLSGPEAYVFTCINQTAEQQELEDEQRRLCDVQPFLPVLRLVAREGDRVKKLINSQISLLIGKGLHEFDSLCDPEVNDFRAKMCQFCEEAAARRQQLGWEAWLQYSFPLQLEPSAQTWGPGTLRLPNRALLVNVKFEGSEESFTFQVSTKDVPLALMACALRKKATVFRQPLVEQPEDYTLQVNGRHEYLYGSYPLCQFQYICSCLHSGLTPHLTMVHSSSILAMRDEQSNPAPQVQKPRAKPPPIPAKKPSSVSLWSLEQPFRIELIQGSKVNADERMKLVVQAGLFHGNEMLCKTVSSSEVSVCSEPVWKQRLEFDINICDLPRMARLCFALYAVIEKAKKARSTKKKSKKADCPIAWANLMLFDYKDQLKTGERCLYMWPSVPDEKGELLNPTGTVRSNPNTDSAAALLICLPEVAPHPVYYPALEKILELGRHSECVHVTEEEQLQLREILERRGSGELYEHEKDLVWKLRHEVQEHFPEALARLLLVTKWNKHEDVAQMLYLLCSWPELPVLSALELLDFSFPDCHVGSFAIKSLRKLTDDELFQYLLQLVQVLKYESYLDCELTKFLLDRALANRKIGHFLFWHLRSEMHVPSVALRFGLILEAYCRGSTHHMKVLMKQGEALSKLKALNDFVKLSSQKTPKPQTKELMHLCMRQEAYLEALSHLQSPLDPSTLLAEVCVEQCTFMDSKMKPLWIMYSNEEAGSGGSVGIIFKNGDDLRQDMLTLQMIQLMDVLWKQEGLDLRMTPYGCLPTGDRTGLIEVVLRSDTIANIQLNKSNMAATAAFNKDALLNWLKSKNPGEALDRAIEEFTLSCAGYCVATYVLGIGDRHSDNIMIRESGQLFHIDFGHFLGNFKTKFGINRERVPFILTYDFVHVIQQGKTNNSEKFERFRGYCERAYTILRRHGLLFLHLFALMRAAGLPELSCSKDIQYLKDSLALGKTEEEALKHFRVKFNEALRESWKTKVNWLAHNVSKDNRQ
T2 sequence (P27986 whole entry partner): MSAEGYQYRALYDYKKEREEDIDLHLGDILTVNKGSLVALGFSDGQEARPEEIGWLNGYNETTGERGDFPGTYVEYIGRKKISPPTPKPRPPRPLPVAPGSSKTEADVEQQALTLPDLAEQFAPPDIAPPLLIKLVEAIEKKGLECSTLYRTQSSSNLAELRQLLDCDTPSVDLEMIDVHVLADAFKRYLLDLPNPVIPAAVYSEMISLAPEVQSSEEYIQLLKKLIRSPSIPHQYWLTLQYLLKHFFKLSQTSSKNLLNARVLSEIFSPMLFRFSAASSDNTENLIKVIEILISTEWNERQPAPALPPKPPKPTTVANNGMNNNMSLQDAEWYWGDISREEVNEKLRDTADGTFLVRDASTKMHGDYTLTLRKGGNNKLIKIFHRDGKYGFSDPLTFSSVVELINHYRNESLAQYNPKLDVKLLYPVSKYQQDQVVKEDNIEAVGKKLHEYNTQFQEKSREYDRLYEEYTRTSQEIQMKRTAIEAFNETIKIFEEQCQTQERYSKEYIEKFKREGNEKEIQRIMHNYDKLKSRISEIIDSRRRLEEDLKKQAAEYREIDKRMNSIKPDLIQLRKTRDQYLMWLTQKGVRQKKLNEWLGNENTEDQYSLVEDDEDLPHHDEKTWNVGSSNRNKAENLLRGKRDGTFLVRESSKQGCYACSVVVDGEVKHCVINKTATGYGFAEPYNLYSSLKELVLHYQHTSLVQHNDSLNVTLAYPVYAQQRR
T3 sequence (P48736 whole entry): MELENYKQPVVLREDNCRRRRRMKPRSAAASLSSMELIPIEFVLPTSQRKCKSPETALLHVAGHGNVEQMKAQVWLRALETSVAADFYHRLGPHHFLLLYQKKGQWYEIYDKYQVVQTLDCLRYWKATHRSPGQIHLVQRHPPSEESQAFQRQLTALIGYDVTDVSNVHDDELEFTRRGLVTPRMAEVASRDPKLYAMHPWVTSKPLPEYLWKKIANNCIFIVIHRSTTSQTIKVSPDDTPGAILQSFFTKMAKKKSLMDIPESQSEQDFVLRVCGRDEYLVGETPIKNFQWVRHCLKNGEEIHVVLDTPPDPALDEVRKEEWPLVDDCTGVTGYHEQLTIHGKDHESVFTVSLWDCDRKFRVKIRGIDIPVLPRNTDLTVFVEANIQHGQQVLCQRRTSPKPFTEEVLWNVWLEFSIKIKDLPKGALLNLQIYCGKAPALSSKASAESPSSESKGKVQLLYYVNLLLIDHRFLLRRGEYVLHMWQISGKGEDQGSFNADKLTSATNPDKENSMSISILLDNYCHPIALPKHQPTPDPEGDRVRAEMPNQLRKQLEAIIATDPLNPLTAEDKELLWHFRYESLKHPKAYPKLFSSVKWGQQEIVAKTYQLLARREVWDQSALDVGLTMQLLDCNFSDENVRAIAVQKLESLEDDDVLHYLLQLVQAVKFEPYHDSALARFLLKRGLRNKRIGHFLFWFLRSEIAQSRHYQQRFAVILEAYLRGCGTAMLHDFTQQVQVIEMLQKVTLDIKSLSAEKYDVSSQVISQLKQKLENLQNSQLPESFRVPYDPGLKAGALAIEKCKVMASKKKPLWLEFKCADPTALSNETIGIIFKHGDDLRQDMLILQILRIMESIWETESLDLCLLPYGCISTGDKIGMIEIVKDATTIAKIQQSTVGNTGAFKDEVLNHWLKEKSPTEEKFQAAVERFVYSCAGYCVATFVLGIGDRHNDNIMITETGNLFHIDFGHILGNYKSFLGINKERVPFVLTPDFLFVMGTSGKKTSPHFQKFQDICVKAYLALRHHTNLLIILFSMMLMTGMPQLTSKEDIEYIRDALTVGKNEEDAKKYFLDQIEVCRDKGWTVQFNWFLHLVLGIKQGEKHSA
T1 sequence (P09619 33-1106): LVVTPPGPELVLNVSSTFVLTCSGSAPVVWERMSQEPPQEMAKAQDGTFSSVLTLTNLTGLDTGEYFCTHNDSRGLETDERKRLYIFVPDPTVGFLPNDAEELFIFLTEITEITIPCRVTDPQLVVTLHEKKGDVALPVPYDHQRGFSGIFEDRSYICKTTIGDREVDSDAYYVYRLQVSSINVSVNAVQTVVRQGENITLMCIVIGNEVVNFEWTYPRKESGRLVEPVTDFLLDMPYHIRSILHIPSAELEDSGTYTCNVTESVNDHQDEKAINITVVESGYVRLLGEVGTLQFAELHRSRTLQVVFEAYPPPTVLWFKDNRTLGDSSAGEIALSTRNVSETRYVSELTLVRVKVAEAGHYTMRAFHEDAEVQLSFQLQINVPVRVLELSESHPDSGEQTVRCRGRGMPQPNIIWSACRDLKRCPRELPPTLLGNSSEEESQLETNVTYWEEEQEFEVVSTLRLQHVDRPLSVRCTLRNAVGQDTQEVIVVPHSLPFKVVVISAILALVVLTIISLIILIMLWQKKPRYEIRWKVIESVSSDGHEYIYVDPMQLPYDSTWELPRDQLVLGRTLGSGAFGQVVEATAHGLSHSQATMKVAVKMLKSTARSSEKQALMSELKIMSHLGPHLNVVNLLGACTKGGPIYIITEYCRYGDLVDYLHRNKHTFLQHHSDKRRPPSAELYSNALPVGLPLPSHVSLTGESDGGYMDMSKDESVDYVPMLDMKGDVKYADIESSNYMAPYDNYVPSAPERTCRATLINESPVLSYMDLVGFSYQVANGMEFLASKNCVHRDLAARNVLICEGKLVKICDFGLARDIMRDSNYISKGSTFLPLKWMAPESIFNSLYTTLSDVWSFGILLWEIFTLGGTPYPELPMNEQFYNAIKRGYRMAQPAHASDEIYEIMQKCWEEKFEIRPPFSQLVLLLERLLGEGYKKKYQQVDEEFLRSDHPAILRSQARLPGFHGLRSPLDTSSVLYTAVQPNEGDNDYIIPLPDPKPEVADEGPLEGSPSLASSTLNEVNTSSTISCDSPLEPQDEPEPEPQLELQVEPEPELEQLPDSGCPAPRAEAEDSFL

inhibition at 1 µM (PDGFR β enzyme; 1 μM)	inhibition at 10 µM (PDGFR β enzyme)	inhibition at 1 µM (PI3Kδ; [1])	inhibition at 10 µM (PI3Kδ; [2])	inhibition at 1 µM (PI3 K γ)	inhibition at 10 µM (PI3 K γ)	inhibition at 0.4 µM (PI3Kδ; [3])	inhibition at 2 µM (PI3Kδ; [3])	inhibition at 10 µM (PI3Kδ; [4])	SMILES	inhibition at 1 µM (PDGFR β enzyme)
53.8%	98.8%	40.2%	69.8%	24.4%	57.3%	–	–	–	CC(C)Oc1nc(Nc2ccc3ncccc3c2)nc2[nH]cnc12 [MED1007-34, N-(6-isopropoxy-9H-purine-2-yl) quinoline-6-amine]	–
9.16%	24.5%	31%	42.1%	-13.7%	4.28%	–	–	–	c1cc(N2CCOCC2)c2cc(Nc3nc(NC4CC4)c4nc[nH]c4n3)ccc2n1 [MED1007-32, N6-cyclopropyl-N2-(4-morpholinequinoline-6-yl)-9H-purine-2,6-diamine]	–
–	–	–	–	–	–	30%	37.7%	68.9%	Cc1ccnc2ccc(Nc3nc(NC4CC4)c4nc[nH]c4n3)cc12 [MED1007-113, N6-cyclopropyl-N2-(4-methylquinoline-6-yl)-9H-purine-2,6-diamine dihydrate di-methanesulfonate]	–
–	–	–	–	–	–	15.7%	44.8%	80.5%	CC(C)Oc1nc(Nc2ccc3nccc(-c4ccc(F)cc4)c3c2)nc2[nH]cnc12 [MED1007-136, 4-(4-fluorophenyl)-N-(6-isopropoxy-9H-purine-2-yl) quinoline-6-amine-methanesulfonate]	–
–	–	–	–	–	–	27.2%	59.6%	83.4%	CC(C)Oc1nc(Nc2ccc3nccc(-c4cccc(F)c4)c3c2)nc2[nH]cnc12 [MED1007-135, 4-(3-fluorophenyl)-N-(6-isopropoxy-9H-purine-2-yl) quinoline-6-amine-methanesulfonate]	–
–	–	–	–	–	–	27.6%	63.3%	99.1%	COc1ccc(-c2ccnc3ccc(Nc4nc(OC(C)C)c5nc[nH]c5n4)cc23)cc1OC [MED1007-137, 4-(3,4-dimethoxyphenyl)-N-(6-isopropoxy-9H-purine-2-yl) quinoline-6-amine-methanesulfonate]	–
4.72%	55%	16.7%	102%	-8.18%	20.4%	–	–	–	COc1cccc(-c2ccnc3ccc(Nc4nc(NC5CC5)c5nc[nH]c5n4)cc23)c1 [MED1007-61, N6-cyclopropyl-N2-(4-(3-methoxyphenyl)quinoline-6-yl)-9H-purine-2,6-diamine]	–
4.71%	25.6%	21.4%	63%	21%	20%	–	–	–	c1cc(N2CCNCC2)c2cc(Nc3nc(NC4CC4)c4nc[nH]c4n3)ccc2n1 [MED1007-33, N6-cyclopropyl-N2-(4-(piperazine-1-yl)quinoline-6-yl)-9H-purine-2,6-diamine]	–
–	–	–	–	–	–	28.4%	49.1%	78.9%	CCc1ccnc2ccc(Nc3nc(NC4CC4)c4nc[nH]c4n3)cc12 [MED1007-114, N6-cyclopropyl-N2-(4-ethylquinoline-6-yl)-9H-purine-2,6 diamine dihydrate di-methanesulfonate]	–
4.39%	0.93%	18%	59%	0.83%	4.97%	–	–	–	COC(=O)c1ccc(-c2ccnc3ccc(Nc4nc(NC5CC5)c5nc[nH]c5n4)cc23)cc1 [MED1007-59, 4-(6-(6-(cyclopropylamino)-9H-purine-2-ylamino)quinoline-4-yl) p-methyl benzoate]	–
–	–	–	–	–	–	4.29%	15%	20.1%	Oc1nc(Nc2ccc3nccc(-c4ccc5c(c4)OCO5)c3c2)nc2[nH]cnc12 [MED1007-139, 2-(4-(benzo[1,3]-dioxole-5-yl)quinoline-6-ylamino)-9H-purine-6-ol-methanesulfonate]	–
–	–	–	–	–	–	–	–	–	CN[C@@H]1C[C@H]2O[C@@](C)([C@@H]1OC)n1c3ccccc3c3c4c(c5c6ccccc6n2c5c31)C(=O)NC4 [Staurosporine, reference compound]	99.8%
-3.26%	20.1%	14.1%	88.7%	-4.23%	15.9%	–	–	–	Fc1cccc(-c2ccnc3ccc(Nc4nc(NC5CC5)c5nc[nH]c5n4)cc23)c1 [MED1007-64, N6-cyclopropyl-N2-(4-(3-fluorophenyl)quinoline-6-yl)-9H-purine-2,6-diamine]	–
3.93%	29.5%	2.11%	35%	-0.29%	-0.98%	–	–	–	CC(C)Oc1nc(Nc2ccc3nccc(N4CCNCC4)c3c2)nc2[nH]cnc12 [MED1007-58, N-(6-isopropoxy-9H-purine-2-yl)-4-(piperazine-1-yl) quinoline-6-amine]	–
–	–	–	–	–	–	20.8%	69%	83.4%	CC(C)Oc1nc(Nc2ccc3nccc(-c4ccc5c(c4)OCO5)c3c2)nc2[nH]cnc12 [MED1007-133, 4-(benzo[1,3]-dioxole-5-yl)-N-(6-isopropoxy-9H-purine-2-yl) quinoline-6-amine-methanesulfonate]	–
–	–	–	–	–	–	-0.76%	8.54%	55%	COc1ccc(-c2ccnc3ccc(Nc4nc(O)c5nc[nH]c5n4)cc23)cc1 [MED1007-132, 2-(4-(4-methoxy-phenyl)quinoline-6-ylamino)-9H-purine-6-ol-methanesulfonate]	–
–	–	–	–	–	–	6.26%	2.94%	12.6%	Oc1nc(Nc2ccc3nccc(-c4ccccc4)c3c2)nc2[nH]cnc12 [MED1007-110, 2-(4-phenylquinoline-6-ylamino)-9H-purine-6-ol]	–
31.2%	93.5%	1.25%	8.64%	10.4%	19.1%	–	–	–	COC(=O)C1(Nc2nc(Nc3ccc4nccc(-c5ccccc5)c4c3)nc3[nH]cnc23)CC1 [MED1007-15, 1-(2-(4-phenylquinoline-6-ylamino)-9H-purine-6-ylamino)cyclopropane carboxylic acid methyl ester]	–
-0.63%	10.6%	-2.33%	34.1%	-2.59%	4.45%	–	–	–	COC(=O)c1cccc(-c2ccnc3ccc(Nc4nc(NC5CC5)c5nc[nH]c5n4)cc23)c1 [MED1007-60, 4-(6-(6-(cyclopropylamino)-9H-purine-2-ylamino)quinoline-4-yl) m-methyl benzoate]	–
–	–	–	–	–	–	22.6%	44%	91.6%	c1ccc(-c2ccnc3ccc(Nc4nc(N5CCOCC5)c5nc[nH]c5n4)cc23)cc1 [MED1007-109, N-(6-morpholine-9H-purine-2-yl)-4-phenyl quinoline-6-amine]	–
